Key:
FGFR2 = FGFR2 (Homo sapiens (Human), UniProt P21802); assay: FGFR2 Biochemical Caliper Assay
Protocol: Compounds of the present invention were also tested in a FGFR2 Biochemical Caliper Assay. Compounds were prepared in 10 mM DMSO solution and serially diluted into 11 concentrations by 3-fold dilution. […] 5 uL of ATP solution (100 uM) was added to start the reaction and the plate was incubated for 90 minutes, then 70 uL of stopping buffer (0.5M EDTA) was added to terminate the reaction. Each well was analyzed using EZ reader.

SNU16 cells = assay: SNU16 Cancer Cell Line Proliferation Assay; format: cell-based; conditions: Homo sapiens; SNU-16 cells
Protocol: Compounds of the present invention were also tested in a SNU16 Cancer Cell Line Proliferation Assay, Test compounds were prepared in a 10 mM DMSO stock solution. 45 uL of stock solution was transferred to a 384 well plate, and a 3-fold 11-point dolution was performed. SNU16 cells in a 384 well cell culture plate were seeded and incubated at 37 degrees for 24 hours. 40 nL of each concentration of compound was transferred from the compound plate to a corresponding well in the cell culture plate by Echo550 liquid handler. The plates were incubated for 96 hours, then equilibrated to room temperature for 15 minutes. 20 uL of CellTiter Glo reagent is added into each well, then the plate was shaken gently for 30 minutes at room temperature. Chemiluminescence was then read on an EnVision reader.

Chain of FGFR2 (P21802 22-821): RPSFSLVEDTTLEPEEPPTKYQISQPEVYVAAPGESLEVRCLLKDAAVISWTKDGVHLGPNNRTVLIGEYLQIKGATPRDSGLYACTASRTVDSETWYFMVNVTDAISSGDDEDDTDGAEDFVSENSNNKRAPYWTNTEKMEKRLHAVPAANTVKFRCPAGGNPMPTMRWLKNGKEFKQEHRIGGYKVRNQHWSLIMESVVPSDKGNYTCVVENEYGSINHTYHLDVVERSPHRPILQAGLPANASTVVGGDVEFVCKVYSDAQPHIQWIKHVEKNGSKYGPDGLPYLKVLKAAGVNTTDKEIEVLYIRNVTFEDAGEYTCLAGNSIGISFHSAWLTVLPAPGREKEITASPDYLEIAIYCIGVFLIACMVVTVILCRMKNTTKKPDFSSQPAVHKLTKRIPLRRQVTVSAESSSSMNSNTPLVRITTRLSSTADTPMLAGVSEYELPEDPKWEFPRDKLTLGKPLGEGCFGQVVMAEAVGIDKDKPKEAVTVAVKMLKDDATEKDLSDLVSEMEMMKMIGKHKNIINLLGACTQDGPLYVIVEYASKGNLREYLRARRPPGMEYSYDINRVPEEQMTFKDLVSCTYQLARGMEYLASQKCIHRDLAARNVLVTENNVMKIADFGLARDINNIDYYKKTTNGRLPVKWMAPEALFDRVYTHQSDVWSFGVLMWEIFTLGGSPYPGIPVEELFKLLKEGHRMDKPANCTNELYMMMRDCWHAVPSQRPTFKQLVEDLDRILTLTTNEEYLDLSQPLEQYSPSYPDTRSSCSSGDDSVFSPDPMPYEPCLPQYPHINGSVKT

IC50 (FGFR2) [nM]	IC50 (SNU16 cells) [nM]	Structure (SMILES)
< 100	≤ 100	C=CC(=O)Nc1ccc(-c2c(-c3cc(C)c(Oc4ncccn4)c(OC)c3)c3c(N)ncnc3n2C)cc1 [Example 120]
< 100	≤ 100	C=CC(=O)Nc1ccc(-c2c(-c3ccc(Oc4ccc(Cl)c(C)n4)cc3)c3c(N)ncnc3n2C)cc1 [Example 123]
< 100	≤ 100	C=CC(=O)Nc1ccc(-c2c(-c3ccc(C(=O)N4CCCC4)cc3)c3c(N)ncnc3n2C)cc1 [Example 128]
250 to 1000	100 to 250	C=C(C)C(=O)Nc1ccc(-c2c(-c3ccc(C(=O)N4CC(C)C4)cc3)c3c(N)ncnc3n2C)cc1 [Example 135]
250 to 1000	≤ 100	C=C(C)C(=O)Nc1ccc(-c2c(-c3ccc(C(=O)N4CCC(F)(F)C4)cc3)c3c(N)ncnc3n2C)cc1 [Example 137]
250 to 1000	100 to 250	C=C(C)C(=O)Nc1ccc(-c2c(-c3ccc(Cn4nc(C)cc4C)cc3)c3c(N)ncnc3n2C)cc1 [Example 140]
< 100	≤ 100	C=C(C)C(=O)Nc1ccc(-c2c(-c3ccc(C(=O)N4CCCCC4)cc3)c3c(N)ncnc3n2C)cc1 [Example 141]
1000 to 100000	250 to 1000	C=C(C)C(=O)Nc1ccc(-c2c(-c3ccc(C(=O)N(C)C)nc3)c3c(N)ncnc3n2C)cc1 [Example 143]
< 100	≤ 100	C=CC(=O)Nc1ccc(-c2c(-c3ccc(Oc4ccn(C)n4)c(OC)c3)c3c(N)ncnc3n2C)cc1 [Example 145]
< 100	≤ 100	C=CC(=O)Nc1ccc(-c2c(C3=CCC(C(=O)NC)CC3)c3c(N)ncnc3n2C)cc1 (centres unmarked) [Example 148]
< 100	≤ 100	C=C(C)C(=O)Nc1ccc(-c2c(-c3ccc(S(=O)(=O)C4CCCC4)cc3)c3c(N)ncnc3n2C)cc1 [Example 150]
250 to 1000	250 to 1000	C=C(C)C(=O)Nc1ccc(-c2c(-c3ccc(C(=O)N(C)C)cc3)c3c(N)ncnc3n2C)cc1 [Example 152]
100 to 250	≤ 100	C=C(C)C(=O)Nc1ccc(-c2c(-c3ccc(C(=O)N4CC5CCCC5C4)cc3)c3c(N)ncnc3n2C)cc1 (centres unmarked) [Example 154]
< 100	≤ 100	CC#CC(=O)Nc1ccc(-c2c(-c3ccc(C(=O)N4CCCC4)cc3)c3c(N)ncnc3n2C)cc1 [Example 155]
250 to 1000	100 to 250	C=C(C)C(=O)Nc1ccc(-c2c(-c3ccc(C(=O)N4CCCC4)c(OC)c3)c3c(N)ncnc3n2C)cc1 [Example 156]
250 to 1000	250 to 1000	C=C(C)C(=O)Nc1ccc(-c2c(-c3ccc(C(=O)N4CCC(O)C4)cc3)c3c(N)ncnc3n2C)cc1 (centres unmarked) [Example 157]

Continued, molecule first:

Structure (SMILES)	IC50 (FGFR2) [nM]	IC50 (SNU16 cells) [nM]
C=CC(=O)Nc1ccc(-c2c(-c3ccc(Oc4ncccn4)c(C(F)(F)F)c3)c3c(N)ncnc3n2C)cc1 [Example 47]	< 100	≤ 100
C=CC(=O)Nc1ccc(-c2c(-c3ccc(Oc4ncccn4)c(CC)c3)c3c(N)ncnc3n2C)cc1 [Example 48]	< 100	≤ 100
C=CC(=O)Nc1ccc(-c2c(-c3ccc(Oc4ncccn4)c(N(C)C)c3)c3c(N)ncnc3n2C)cc1 [Example 49]	< 100	≤ 100
C=CC(=O)Nc1ccc(-c2c(-c3ccc(Oc4cccc(CC)n4)c(OC)c3)c3c(N)ncnc3n2C)cc1 [Example 50]	< 100	≤ 100
C=CC(=O)Nc1ccc(-c2c(-c3ccc(Oc4ncccn4)c(OCC)c3)c3c(N)ncnc3n2C)cc1 [Example 51]	< 100	≤ 100
C=CC(=O)Nc1ccc(-c2c(-c3ccc(Oc4ncccn4)c(OC(F)(F)F)c3)c3c(N)ncnc3n2C)cc1 [Example 53]	< 100	≤ 100
C=CC(=O)Nc1ccc(-c2c(-c3ccc(Oc4ncccn4)cc3)c3c(N)ncnc3n2C)cc1 [Example 54]	< 100	≤ 100
C=CC(=O)Nc1ccc(-c2c(-c3ccc(Oc4ncc(CO)cn4)c(OC)c3)c3c(N)ncnc3n2C)cc1 [Example 60]	< 100	250 to 1000
C=C(C)C(=O)Nc1ccc(-c2c(-c3ccc(Sc4ncccn4)cc3)c3c(N)ncnc3n2C)cc1 [Example 69]	250 to 1000	250 to 1000
Cc1cccc(Oc2ccc(-c3c(-c4ccc(NC(=O)C(C)C)cc4)n(C)c4ncnc(N)c34)cc2)n1 [Example 70]	250 to 1000	250 to 1000
C=CC(=O)Nc1ccc(-c2c(-c3ccc(Oc4ncc(Cl)cn4)c(OC)c3)c3c(N)ncnc3n2C)cc1 [Example 78]	< 100	≤ 100
C=C(C)C(=O)Nc1ccc(-c2c(-c3ccc(Oc4cccc(C)n4)cc3)c3c(N)ncnc3n2CC)cc1 [Example 83]	< 100	≤ 100
C=C(C)C(=O)Nc1ccc(-c2c(-c3ccc(NC(C)=O)c(OC)c3)c3c(N)ncnc3n2C)cc1 [Example 86]	1000 to 100000	250 to 1000
C=C(C)C(=O)Nc1ccc(-c2c(-c3ccc(Oc4cccc(C)n4)cc3)c3c(N)ncnc3n2C2CC(O)C2)cc1 (centres unmarked) [Example 90]	< 100	≤ 100
C=C(C)C(=O)Nc1ccc(-c2c(-c3ccc(Oc4cccc(C)n4)cc3)c3c(N)ncnc3n2CCO)cc1 [Example 91]	< 100	≤ 100
C=C(C)C(=O)Nc1ccc(-c2c(-c3cc(F)c(Oc4ncccn4)c(Cl)c3)c3c(N)ncnc3n2C)cc1 [Example 94]	< 100	≤ 100
C=C(C)C(=O)Nc1ccc(-c2c(-c3ccc(C(=O)N4CCCC4)cc3)c3c(N)ncnc3n2C)cc1 [Example 95]	100 to 250	≤ 100
C=C(C)C(=O)Nc1ccc(-c2c(-c3ccc(Oc4ncc(C)cn4)c(F)c3)c3c(N)ncnc3n2C)cc1 [Example 96]	< 100	≤ 100
C=CC(=O)Nc1ccc(-c2c(-c3ccc(Oc4ncc(NC)cn4)c(OC)c3)c3c(N)ncnc3n2C)cc1 [Example 98]	< 100	≤ 100
C=C(C)C(=O)Nc1ccc(-c2c(-c3ccc(Oc4ccn(C)n4)c(OC)c3)c3c(N)ncnc3n2C)cc1 [Example 100]	250 to 1000	100 to 250
C=CC(=O)Nc1ccc(-c2c(-c3ccc(Oc4ncc(F)cn4)c(OC)c3)c3c(N)ncnc3n2C)cc1 [Example 101]	< 100	≤ 100
C=CC(=O)Nc1ccc(-c2c(-c3ccc(Oc4ncc(Cl)cn4)cc3)c3c(N)ncnc3n2C)cc1 [Example 103]	< 100	≤ 100
C=C(C)C(=O)Nc1ccc(-c2c(-c3cc(F)c(Oc4ncccn4)c(F)c3)c3c(N)ncnc3n2C)cc1 [Example 110]	< 100	≤ 100
C=CC(=O)Nc1ccc(-c2c(-c3ccc(Oc4ncc(C(F)F)cn4)c(OC)c3)c3c(N)ncnc3n2C)cc1 [Example 113]	< 100	≤ 100
C=C(C)C(=O)Nc1ccc(-c2c(-c3ccc(Oc4ccc(F)cn4)c(F)c3)c3c(N)ncnc3n2C)cc1 [Example 114]	250 to 1000	100 to 250
C=C(C)C(=O)Nc1ccc(-c2c(-c3ccc(Oc4ncc(F)cn4)c(F)c3)c3c(N)ncnc3n2C)cc1 [Example 116]	< 100	≤ 100
C=C(C)C(=O)Nc1ccc(-c2c(-c3ccc(Oc4ccc(OC)c(F)n4)cc3)c3c(N)ncnc3n2C)cc1 [Example 117]	250 to 1000	100 to 250

Source: US11780845B2 (Relay Therapeutics, Inc., priority 2019, dated 2023)
